Assay results: ChEMBL document CHEMBL1135095, “3-D QSAR studies on new dibenzyltin(IV) anticancer agents by comparative molecular field analysis (CoMFA)” (Bioorg Med Chem Lett, 2002)

Key:
[1] = species: Mus musculus; test: Lethal dose in swiss albino mice by peroral route; type: toxicity, organism-based; conditions: in vivo, po
[2] = tested on: IGROV-1; test: In vitro antitumor activity against IGROV human cancer cell line; type: functional, cell-based
[3] = tested on: SK-MEL19; test: In vitro antitumor activity against MEL 19 human cancer cell line; type: functional, cell-based
[4] = tested on: WiDr; test: In vitro antitumor activity against WIDR human cancer cell line; type: functional, cell-based

| Sequence | LD50 [1] [mg/kg] | ID50 [2] [µM] | ID50 [3] [µM] | ID50 [4] [µM] |
| --- | --- | --- | --- | --- |
| CARBOPLATIN [listing 1 of 2 here] | 150 |  |  |  |
| CARBOPLATIN [listing 2 of 2 here] |  | 646 | 1480 | 943 |
| CISPLATIN [listing 1 of 2 here] | 31 |  |  |  |
| CISPLATIN [listing 2 of 2 here] |  | 75 | 260 | 450 |
